Test results: patent US6608086B2, “Dihydropyridines and new uses thereof” (Synaptic Pharmaceutical Corporation, priority 1993, dated 2003)
pKi: −log10 of the molar value. Like-named read-outs stand apart in the source and are kept apart here.

Columns and labels:
L-type calcium channel = molecular target: T1, L-type calcium channel (Rattus norvegicus, UniProt P22002); assay: Competition binding of [3H]nitrendipine to membrane fragments of rat cardiac muscle; settings: for Ki: [3H]nitrendipine, read-out: pKi Ca (converted); for pKi: pKi Ca
T1 construct: membrane fragments of rat cardiac muscle; from tissue; host or cells: rat cardiac muscle membranes

[1] = rat cardiac muscle membranes, SEM and n in lines below
[2] = rat cardiac muscle membrane fragments, L-type calcium channel

T1 sequence (P22002 whole entry, other chains not shown, the tested form may be a part): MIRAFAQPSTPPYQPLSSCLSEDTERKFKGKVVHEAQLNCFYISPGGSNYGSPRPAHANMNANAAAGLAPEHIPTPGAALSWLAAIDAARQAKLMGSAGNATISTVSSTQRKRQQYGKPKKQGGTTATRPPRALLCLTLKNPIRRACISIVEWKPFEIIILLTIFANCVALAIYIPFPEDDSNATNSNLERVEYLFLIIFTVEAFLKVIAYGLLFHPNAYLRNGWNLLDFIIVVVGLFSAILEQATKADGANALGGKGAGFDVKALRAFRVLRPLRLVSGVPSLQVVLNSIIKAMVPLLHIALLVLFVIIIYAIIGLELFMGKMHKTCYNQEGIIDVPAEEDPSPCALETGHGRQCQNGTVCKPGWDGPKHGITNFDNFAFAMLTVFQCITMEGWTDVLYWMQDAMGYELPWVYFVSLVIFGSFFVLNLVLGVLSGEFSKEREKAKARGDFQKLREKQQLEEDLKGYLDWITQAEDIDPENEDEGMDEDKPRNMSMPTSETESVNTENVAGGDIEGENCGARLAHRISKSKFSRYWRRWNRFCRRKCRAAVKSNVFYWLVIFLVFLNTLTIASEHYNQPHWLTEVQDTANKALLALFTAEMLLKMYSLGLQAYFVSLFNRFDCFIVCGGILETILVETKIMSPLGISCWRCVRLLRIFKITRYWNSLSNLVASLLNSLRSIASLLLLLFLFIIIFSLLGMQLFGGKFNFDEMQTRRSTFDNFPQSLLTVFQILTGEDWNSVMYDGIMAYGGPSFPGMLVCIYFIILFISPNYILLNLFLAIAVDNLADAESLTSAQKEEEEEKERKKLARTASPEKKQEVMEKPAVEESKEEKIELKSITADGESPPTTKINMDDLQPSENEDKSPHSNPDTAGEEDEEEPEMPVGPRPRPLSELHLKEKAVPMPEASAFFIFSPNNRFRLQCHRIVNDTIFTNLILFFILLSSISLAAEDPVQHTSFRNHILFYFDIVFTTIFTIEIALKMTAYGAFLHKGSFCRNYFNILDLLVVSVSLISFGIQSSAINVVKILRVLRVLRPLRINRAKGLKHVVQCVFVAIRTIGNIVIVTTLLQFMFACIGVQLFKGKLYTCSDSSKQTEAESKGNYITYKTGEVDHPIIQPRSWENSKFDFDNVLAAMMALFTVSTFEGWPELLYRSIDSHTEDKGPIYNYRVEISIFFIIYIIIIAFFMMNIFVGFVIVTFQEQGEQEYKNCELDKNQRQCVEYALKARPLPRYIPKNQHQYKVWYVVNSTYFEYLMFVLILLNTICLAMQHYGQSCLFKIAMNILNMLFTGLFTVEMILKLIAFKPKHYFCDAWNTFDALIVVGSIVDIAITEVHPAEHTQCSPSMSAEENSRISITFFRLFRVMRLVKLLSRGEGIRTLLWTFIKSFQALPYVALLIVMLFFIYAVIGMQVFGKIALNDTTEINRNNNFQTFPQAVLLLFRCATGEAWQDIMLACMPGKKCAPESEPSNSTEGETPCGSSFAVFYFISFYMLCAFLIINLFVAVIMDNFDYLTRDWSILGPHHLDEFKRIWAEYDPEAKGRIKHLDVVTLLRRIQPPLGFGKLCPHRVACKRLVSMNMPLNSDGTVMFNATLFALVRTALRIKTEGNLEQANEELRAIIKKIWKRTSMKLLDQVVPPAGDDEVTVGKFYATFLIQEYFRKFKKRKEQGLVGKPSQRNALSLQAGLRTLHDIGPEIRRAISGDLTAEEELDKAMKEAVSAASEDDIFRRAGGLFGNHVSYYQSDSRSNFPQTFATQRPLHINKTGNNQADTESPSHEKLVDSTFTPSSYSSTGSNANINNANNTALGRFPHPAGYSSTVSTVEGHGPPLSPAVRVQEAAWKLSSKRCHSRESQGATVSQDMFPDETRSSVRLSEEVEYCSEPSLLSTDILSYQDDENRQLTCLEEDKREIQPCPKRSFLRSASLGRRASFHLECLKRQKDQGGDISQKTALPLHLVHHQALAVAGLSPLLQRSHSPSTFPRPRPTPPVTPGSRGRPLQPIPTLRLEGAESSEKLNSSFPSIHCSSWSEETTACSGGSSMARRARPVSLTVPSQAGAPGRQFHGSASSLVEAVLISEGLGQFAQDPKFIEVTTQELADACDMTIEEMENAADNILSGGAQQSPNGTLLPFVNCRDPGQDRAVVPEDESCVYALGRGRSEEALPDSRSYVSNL
T1 sequence (P54290 25-944 partner limits assumed, other chains not shown): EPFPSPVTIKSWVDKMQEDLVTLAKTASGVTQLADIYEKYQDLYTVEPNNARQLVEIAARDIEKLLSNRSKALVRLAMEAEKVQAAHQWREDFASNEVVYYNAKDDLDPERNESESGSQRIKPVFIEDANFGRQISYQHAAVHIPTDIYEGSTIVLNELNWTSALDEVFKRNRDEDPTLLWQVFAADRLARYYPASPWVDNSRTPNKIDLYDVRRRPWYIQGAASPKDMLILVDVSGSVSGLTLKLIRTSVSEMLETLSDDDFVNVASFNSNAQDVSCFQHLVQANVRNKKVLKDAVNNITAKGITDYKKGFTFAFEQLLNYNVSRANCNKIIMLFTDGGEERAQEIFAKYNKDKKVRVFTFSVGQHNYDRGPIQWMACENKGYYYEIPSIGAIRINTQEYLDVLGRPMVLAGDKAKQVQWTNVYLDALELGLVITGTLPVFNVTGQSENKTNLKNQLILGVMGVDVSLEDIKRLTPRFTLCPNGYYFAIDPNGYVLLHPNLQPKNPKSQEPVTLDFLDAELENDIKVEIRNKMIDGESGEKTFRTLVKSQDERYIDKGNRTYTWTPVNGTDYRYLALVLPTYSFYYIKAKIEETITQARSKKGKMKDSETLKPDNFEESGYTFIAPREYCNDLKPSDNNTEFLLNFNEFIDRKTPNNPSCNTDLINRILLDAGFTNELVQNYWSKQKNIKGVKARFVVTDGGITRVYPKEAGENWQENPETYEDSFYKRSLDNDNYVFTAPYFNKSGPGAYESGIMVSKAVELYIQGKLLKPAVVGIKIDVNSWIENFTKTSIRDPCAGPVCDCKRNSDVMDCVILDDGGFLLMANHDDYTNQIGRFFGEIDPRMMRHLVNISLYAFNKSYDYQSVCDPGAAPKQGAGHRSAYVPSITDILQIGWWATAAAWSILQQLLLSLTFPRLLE
T1 sequence (P54290 945-1091 partner limits assumed, other chains not shown): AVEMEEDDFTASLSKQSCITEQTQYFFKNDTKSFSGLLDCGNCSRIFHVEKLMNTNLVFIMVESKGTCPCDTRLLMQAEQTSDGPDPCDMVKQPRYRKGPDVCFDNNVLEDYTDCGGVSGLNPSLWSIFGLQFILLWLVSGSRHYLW

Row | Compound | Ki (L-type calcium channel; [1]) [µM] | melting point | pKi (L-type calcium channel) | Ki (L-type calcium channel; [2]) [µM]
1 | COC(=O)C1=C(C)NC(C)=C(C(=O)NCCCN2CCC(c3ccccc3)(c3ccccc3)CC2)C1Cc1ccccc1 (stereo not drawn) [Example 8, 4-Benzyl-1,4-dihydro-3-methoxycarbonyl-2,6-dimethyl-5-(N-(3-(4,4-diphenylpiperidin-1-yl)propyl)carboxamido)pyridine] | 11.5 | 175 to 177 °C |  | 
2 | COC(=O)C1=C(C)NC(C)=C(C(=O)NCCCN2CCC(c3ccccc3)(c3ccccc3)CC2)C1c1cc[n+]([O-])cc1 (stereo not drawn) [Example 9, 1,4-Dihydro-3-methoxycarbonyl-2,6-Dimethyl-4-(1-oxido-4-pyridyl)-5-(N-(3-(4,4-diphenylpiperidin-1-yl)propyl)carboxamido)pyridine] | 19.1 | 206 to 209 °C (dec.) |  | 
3 | COC(=O)C1=C(C)NC(C)=C(C(=O)NCCCN2CCC(c3ccccc3)(c3ccccc3)CC2)C1c1ccc(Cl)cc1 (stereo not drawn) [Example 10, 4-(4-Chlorophenyl)-1,4-dihydro-5-methoxycarbonyl-2,6-Dimethyl-5-(N-(3-(4,4-diphenylpiperidin-1-yl)propyl)carboxamido)pyridine] |  | 240 to 242 °C | 5.12 | 
4 | COC(=O)C1=C(C)NC(C)=C(C(=O)NCCCN2CCC(c3ccccc3)(c3ccccc3)CC2)C1c1ccc2c(c1)OCO2 (stereo not drawn) [Example 11, 1,4-Dihydro-3-methoxycarbonyl-2,6-dimethyl-4-(3,4-methylenedioxyphenyl)-5-(N-(3-(4,4-diphenylpiperidin-1-yl)propyl)carboxamido)pyridine] |  | 197 to 200 °C | 5.64 | 
5 | COC(=O)C1=C(C)NC(C)=C(C(=O)NCCCN2CCC(c3ccccc3)(c3ccccc3)CC2)C1c1ccc(C#N)cc1 (stereo not drawn) [Example 12, 4-(4-Cyanophenyl)-1,4-dihydro-3-methoxycarbonyl-2,6-dimethyl-5-(N-(3-(4,4-diphenylpiperidin-1-yl)propyl)carboxamido)pyridine] |  | 115 to 118 °C | 5.42 | 
6 | COC(=O)C1=C(C)NC(C)=C(C(=O)NCCCN2CCC(c3ccccc3)(c3ccccc3)CC2)C1c1ccc(I)cc1 (stereo not drawn) [Example 13, 1,4-Dihydro-4-(4-iodophenyl)-3-methoxycarbonyl-2,6-dimethyl-5-(N-(3-(4,4-diphenylpiperidin-1-yl)propyl)carboxamido)pyridine] |  | 228 to 230 °C (dec.) | 5.05 | 
7 | COC(=O)C1=C(C)NC(C)=C(C(=O)NCCCN2CCC(c3ccccc3)(c3ccccc3)CC2)C1c1ccc(Br)cc1 (stereo not drawn) [Example 15, 4-(4-Bromophenyl)-1,4-dihydro-3-methoxycarbonyl-2,6-dimethyl-5-(N-(3-(4,4-diphenylpiperidin-1-yl)propyl)carboxamido)pyridine] |  | 244 to 247 °C (dec.) | 5.14 | 
8 | COC(=O)C1=C(C)NC(C)=C(C(=O)NCCCN2CCC(c3ccccc3)(c3ccccc3)CC2)C1c1ccc(Cl)c([N+](=O)[O-])c1 (stereo not drawn) [Example 16, 4-(4-Chloro-3-nitrophenyl)-1,4-dihydro-3-methoxycarbonyl-2,6-dimethyl-5-(N-(3-(4,4-diphenylpiperidin-1-yl)propyl)carboxamido)pyridine] |  | 178 to 181 °C | 6.09 | 
9 | COC(=O)C1=C(C)NC(C)=C(C(=O)NCCCN2CCC(c3ccccc3)(c3ccccc3)CC2)C1c1ccc(C(C)C)cc1 (stereo not drawn) [Example 18, 1,4-Dihydro-4-(4-isopropylphenyl)-3-methoxycarbonyl-2,6-dimethyl-5-(N-(3-(4,4-diphenylpiperidin-1-yl)propyl)carboxamido)pyridine] |  | 163 to 163.5 °C | 6.79 | 
10 | COC(=O)C1=C(C)NC(C)=C(C(=O)NCCCN2CCC(c3ccccc3)(c3ccccc3)CC2)C1c1ccc(C)cc1 (stereo not drawn) [Example 19, 1,4-Dihydro-3-methoxycarbonyl-1,6-dimethyl-4-(4-methylphenyl)-5-(N-(3-(4,4-diphenylpiperidin-1-yl)propyl)carboxamido)pyridine] |  | 234 to 235 °C | 5.13 | 
11 | COC(=O)C1=C(C)NC(C)=C(C(=O)NCCCN2CCC(c3ccccc3)(c3ccccc3)CC2)C1c1ccc(F)cc1 (stereo not drawn) [Example 20, 4-(4-Fluorophenyl)-1,4-dihydro-3-methoxycarbonyl-2,6-dimethyl-5-(N-(3-(4,4-diphenylpiperidin-1-yl)propyl)carboxamido)pyridine] |  | 251 to 251.5 °C | 5.94 | 
12 | COC(=O)C1=C(C)NC(C)=C(C(=O)NCCCN2CCC(c3ccccc3)(c3ccccc3)CC2)C1c1ccc(OC)cc1 (stereo not drawn) [Example 21, 1,4-Dihydro-3-methoxycarbonyl-4-(4-Methoxyphenyl)-2,6-dimethyl-5-(N-(3-(4,4-diphenylpiperidin-1-yl)propyl)carboxamido)pyridine] |  | 212 to 213 °C | 6.00 | 
13 | COC(=O)C1=C(C)NC(C)=C(C(=O)NCCCN2CCC(c3ccccc3)(c3ccccc3)CC2)C1c1ccoc1 (stereo not drawn) [Example 23, 4-(3-Furyl)-1,4-dihydro-3-methoxycarbonyl-2,6-dimethyl-5-(N-(3-(4,4-diphenylpiperidin-1-yl)propyl)carboxamide)pyridine] | 0.288 | 225 to 226 °C |  | 
14 | COC(=O)C1=C(C)NC(C)=C(C(=O)NCCCN2CCC(c3ccccc3)(c3ccccc3)CC2)C1c1ccc(Cl)c(Cl)c1 (stereo not drawn) [Example 24, 4-(3,4-Dichlorophenyl)-1,4-dihydro-3-methoxycarbonyl-2,6-dimethyl-5-(3-(D 44-diphenylpiperidin-1-yl)propylcarboxamido)pyridine] |  | 177 to 178 °C | 5.71 | 
15 | COC(=O)C1=C(C)NC(C)=C(C(=O)NCCCN2CCC(c3ccccc3)(c3ccccc3)CC2)C1c1ccc(C(=O)OC)cc1 (stereo not drawn) [Example 25, 1,4-Dihydro-3-methoxycarbonyl-4-(4-methoxycarbonylphenyl)-2,6-dimethyl-5-(N-(3-(4,4-diphenylpiperidin-1-yl)propyl)carboxamide)pyridine] |  | 175.5 to 176 °C | 5.94 | 
16 | COC(=O)C1=C(C)NC(C)=C(C(=O)NCCCN2CCC(c3ccccc3)(c3ccccc3)CC2)C1c1ccc(OC)c(OC)c1 (stereo not drawn) [Example 26] |  | 180 to 181 °C | 7.06 | 
17 | COC(=O)C1=C(C)NC(C)=C(C(=O)NCCCN2CCC(c3ccccc3)(c3ccccc3)CC2)C1c1cc(OC)c(OC)c(OC)c1 (stereo not drawn) [Example 27] |  | 187 to 188 °C | 6.23 | 
18 | COC(=O)C1=C(C)NC(C)=C(C(=O)NCCCN2CCC(c3ccccc3)(c3ccccc3)CC2)C1c1ccc([N+](=O)[O-])c(OC)c1 (stereo not drawn) [Example 29, 1,4-Dihydro-3-methoxycarbonyl-4-(3-methoxy-4-nitrophenyl)-2,6-dimethyl-5-(N-(3-(4,4-diphenylpiperidin-1-yl)propyl)carboxamido)pyridine] | 13.8 | 211 to 213 °C |  | 
19 | CC1=C(C(=O)NCCCN2CCC(c3ccccc3)(c3ccccc3)CC2)C(c2ccc([N+](=O)[O-])cc2)C2=C(CCCC2=O)N1 (stereo not drawn) [Example 40, 1,4,5,6,7,8-Hexahydro-2-methyl-4-(4-nitrophenyl)-5-oxo-3-{N-[3-(4,4-diphenylpiperidin-1-yl)propyl]}carboxamidoquinoline] | 15.8 | 143 to 146 °C |  | 
20 | CC1=C(C(N)=O)C(c2cccc([N+](=O)[O-])c2)C(C(=O)NCCCN2CCC(c3ccccc3)(c3ccccc3)CC2)=C(C)N1 (stereo not drawn) [Example 61, 5-Carboxamido-1,4-dihydro-2,6-dimethyl-4-(3-nitrophenyl)-3-{N-[3-(4,4-diphenylpiperidin-1-yl)propyl]}carboxamidopyridine] | 10.2 | 144 to 148 °C |  | 
21 | CC1=C(C(=O)NCCCN2CCC(c3ccccc3)(c3ccccc3)CC2)C(c2ccc([N+](=O)[O-])cc2)c2c([nH]c(=O)[nH]c2=O)N1 (stereo not drawn) [Example 64] | 97.7 | 184 to 186 °C |  | 
22 | CCC1=C(C(=O)NCCCN2CCC(c3ccccc3)(c3ccccc3)CC2)C(c2cccc(OC)c2)C(C(=O)NCCCN2CCC(c3ccccc3)(c3ccccc3)CC2)=C(CC)N1 [Example 112, 2,6-Diethyl-1,4-dihydro-4-(3-methoxyphenyl)-3,5-bis(N-(3-(4,4-diphenylpiperidin-1-yl)propyl)carboxamido)-pyridine] |  | 166 to 170 °C |  | 0.0575
23 | CCC1=C(C(=O)NCCCN2CCC(c3ccccc3)(c3ccccc3)CC2)C(c2cccc(OC)c2)C(C(N)=O)=C(C)N1 (stereo not drawn) [Example 113, 5-Carboxamide-2-ethyl-1,4-dihydro-4-(3-methoxyphenyl)-6-methyl-3-(N-(3-(4,4-diphenylpiperidin-1-yl)propyl)carboxamido)-pyridine] |  | 120 to 123 °C |  | 1000
24 | CC1=C(C(N)=O)C(c2ccc(S(C)(=O)=O)cc2)C(C(=O)NCCCN2CCC(c3ccccc3)(c3ccccc3)CC2)=C(C)N1 (stereo not drawn) [Example 115, 5-Carboxamido-1,4-4-dihydro-4-(4-methanesufonylphenyl)-2,6-dimethyl-3-(N-(3-(4,4-diphenylpiperidin-1-yl)propyl)carboxamido)-pyridine] |  | 206 to 209 °C |  | 1000
25 | COc1cccc(C2C(C(N)=O)=C(C)NC(C)=C2C(=O)NCCCN2CCC(c3ccccc3)(c3ccccc3)CC2)c1 (stereo not drawn) [Example 117, 5-Carboxamido-1,4-dihydro-4-(3-Methoxyphenyl)-2,6-dimethyl-3-(N-(3-(4,4-diphenylpiperidin-1-yl)propyl)carboxamido)-pyridine] |  | 212 to 213 °C |  | 1000
26 | CCC1=C(C(N)=O)C(c2ccc(S(C)(=O)=O)cc2)C(C(=O)NCCCN2CCC(c3ccccc3)(c3ccccc3)CC2)=C(C)N1 (stereo not drawn) [Example 118, 3-Carboxamido-2-ethyl-1,4-dihydro-4-(4-methanesulfonylphenyl)-6-methyl-3-(N-(3-(4,4-diphenylpiperidin-1-yl)propyl)carboxyamido)-pyridine] |  | 182 to 183 °C |  | 1000
27 | CC(C)C1=C(C(N)=O)C(c2ccc([N+](=O)[O-])cc2)C(C(=O)NCCCN2CCC(c3ccccc3)(c3ccccc3)CC2)=C(C(C)C)N1 (stereo not drawn) [Example 127] |  | 76 to 80 °C |  | 1000
